Assay results as given in ChEMBL document CHEMBL1152335, “NMR strategy for unraveling structures of bioactive sponge-derived oxy-polyhalogenated diphenyl ethers” (J Nat Prod, 2009).

The compounds below were run against Induced myeloid leukemia cell differentiation protein Mcl-1 (Homo sapiens, UniProt Q07820) (assay: Inhibition of Bak binding to Mcl-1 by FRET assay).
Induced myeloid leukemia cell differentiation protein Mcl-1, sequence (Q07820 whole entry): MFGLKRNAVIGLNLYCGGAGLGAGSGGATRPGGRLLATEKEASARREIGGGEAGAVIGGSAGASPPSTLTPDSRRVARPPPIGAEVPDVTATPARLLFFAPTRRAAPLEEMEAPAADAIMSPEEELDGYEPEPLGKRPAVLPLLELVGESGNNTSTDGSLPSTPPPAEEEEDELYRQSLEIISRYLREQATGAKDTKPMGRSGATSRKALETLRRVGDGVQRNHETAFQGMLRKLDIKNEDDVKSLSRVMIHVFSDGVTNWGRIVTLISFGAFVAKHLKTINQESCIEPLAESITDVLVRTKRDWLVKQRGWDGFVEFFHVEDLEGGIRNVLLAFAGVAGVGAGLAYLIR

SMILES	IC50
Oc1c(Br)cc(Br)cc1Oc1c(O)c(Br)cc(Br)c1Br	> 16.8 µM
Oc1c(Br)cc(Br)cc1Oc1c(O)c(Br)c(Br)c(Br)c1Br	> 14.8 µM
Oc1cc(Br)cc(Br)c1Oc1ccc(Br)cc1Br	4.78 µM
Oc1c(Br)c(Br)cc(Br)c1Oc1ccc(Br)cc1Br	> 17.2 µM
Oc1c(Br)cc(Br)cc1Oc1c(Br)cc(Br)c(Br)c1O	> 16.8 µM
Oc1cc(Br)c(Br)c(Br)c1Oc1cc(Br)cc(Br)c1O	> 16.8 µM
COc1c(Br)c(Br)cc(Br)c1Oc1cc(Br)cc(Br)c1O	> 16.4 µM
Oc1c(Br)cc(Br)cc1Oc1cc(Br)c(Br)c(Br)c1O	> 16.8 µM
